Series [1] in a line: refractive index (Na D-line) (dimensionless). As to conditions: 101.33 kPa, Liquid, Standard Abbe refractometry.
For series [2] the following is noted: 101.33 kPa, Liquid, Vibrating tube method.

Numbers after ± are expanded uncertainties.

The values below come from the NIST ThermoML archive (doi:10.1016/j.jct.2015.07.020).

What is called refractive index is a measure of how strongly the sample bends light. Take `O` [water]: in series [1] (298.15 K), the refractive index was 1.3324 ± 0.0005.
By mass density is commonly meant the mass of a sample divided by its volume. `CC(C)c1ccccc1` [isopropylbenzene]: in series [2] (293.15 K), the mass density was determined as 863.82 ± 0.3 kg/m3. Besides, the refractive index in series [1] (293.15 K) is given as 1.4912 ± 0.0005.
In the case of `CCc1ccccc1` [ethylbenzene], the mass density in series [2] (298.15 K) is on record as 862.51 ± 0.3 kg/m3. Moreover, the refractive index in series [1] (298.15 K) was 1.493 ± 0.0005.
